These results are taken from ChEMBL document CHEMBL5137068, “Discovery of Hexahydrofuro[3,2-b]furans as New Kinase-Selective and Orally Bioavailable JAK3 Inhibitors for the Treatment of Leukemia Harboring a JAK3 Activating Mutant” (J Med Chem, 2022).

For orientation: inhibition means the change of the read-out against control, counted positive when it falls. As usually defined, the IC50 is the point on the concentration scale where inhibition reaches its midpoint.

For assay [1], the target named is Cyclin-Y/Cyclin-dependent kinase 16 (Homo sapiens) (UniProt Q00536+Q8ND76). In words: Inhibition of human CDK16/cyclin-Y at 0.5 uM relative to control. The class given is protein-complex assay.
Assay [2] concerns the target Non-receptor tyrosine-protein kinase TYK2 (Homo sapiens, UniProt P29597). In words: Inhibition of human TYK2 at 0.5 uM relative to control.
The target in assay [3] is Tyrosine-protein kinase ITK/TSK (Homo sapiens) (UniProt Q08881). In words: Inhibition of ITK (unknown origin) at 0.5 uM relative to control.
Assay [4] has as its target Receptor tyrosine-protein kinase erbB-2 (Homo sapiens) (UniProt P04626). In words: Inhibition of HER2 (unknown origin) at 0.5 uM relative to control.
Assay [5] deals with T1, Signal transducer and activator of transcription 5A (Homo sapiens) (UniProt P42229).
T1 sequence (whole entry): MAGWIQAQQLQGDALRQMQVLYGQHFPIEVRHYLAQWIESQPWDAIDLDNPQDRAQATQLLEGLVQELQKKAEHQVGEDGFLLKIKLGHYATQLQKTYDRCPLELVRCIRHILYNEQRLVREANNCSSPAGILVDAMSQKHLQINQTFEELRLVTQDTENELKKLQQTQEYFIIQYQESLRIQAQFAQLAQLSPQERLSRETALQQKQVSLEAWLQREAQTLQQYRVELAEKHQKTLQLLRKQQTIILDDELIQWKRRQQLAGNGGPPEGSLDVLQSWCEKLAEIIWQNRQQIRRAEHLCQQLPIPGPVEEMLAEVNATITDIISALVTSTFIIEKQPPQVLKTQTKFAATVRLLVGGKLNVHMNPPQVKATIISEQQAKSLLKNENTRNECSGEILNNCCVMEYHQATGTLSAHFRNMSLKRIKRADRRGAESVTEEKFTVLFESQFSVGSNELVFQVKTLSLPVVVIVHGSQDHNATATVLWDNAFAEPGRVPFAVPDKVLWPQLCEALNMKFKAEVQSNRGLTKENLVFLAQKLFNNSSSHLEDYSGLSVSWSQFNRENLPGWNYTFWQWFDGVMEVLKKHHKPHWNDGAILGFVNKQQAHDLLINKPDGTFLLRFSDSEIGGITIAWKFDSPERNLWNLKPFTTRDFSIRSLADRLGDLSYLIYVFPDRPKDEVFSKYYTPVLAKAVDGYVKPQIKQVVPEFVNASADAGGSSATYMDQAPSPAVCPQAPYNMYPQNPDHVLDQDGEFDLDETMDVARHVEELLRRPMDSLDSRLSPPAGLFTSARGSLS
Put plainly: Inhibition of STAT5 activation in human U-937 cells assessed as decrease in P-STAT5 at 100 uM by Western blot analysis. As to conditions: time 0-24 hrs, TDE = time-dependent effect. The format is cell-based. Background: In western blotting, separated proteins are transferred to a membrane and probed.

Assay [6] has as its target Signal transducer and activator of transcription 3 (Homo sapiens) (UniProt P40763). In words: Inhibition of STAT3 activation in human U-937 cells assessed as decrease in P-STAT3 incubated for 0 to 24 hrs by Western blot analysis. The class given is cell-based. The settings on record: dose 200.0 µM, time 0-24 hrs, DDE = dose-dependent effect.
The subject of assay [7] is U-937. Put plainly: Induction of cell cycle arrest in human U-937 cells assessed as accumulation at S phase at 11 nM measured after 24 hrs by propidium iodide staining based flow cytometric analysis (reference value: 15.35%). The class given is functional. A general note: In flow cytometry, cells or beads pass a laser one at a time.
Assay [8] relates to U-937. Put plainly: Induction of cell cycle arrest in human U-937 cells assessed as accumulation at S phase at 100 nM measured after 24 hrs by propidium iodide staining based flow cytometric analysis (reference value: 15.35%). The format is functional.
Assay [9] has as its target T2, Tyrosine-protein kinase JAK3 (Homo sapiens) (UniProt P52333).
T2 sequence (whole entry): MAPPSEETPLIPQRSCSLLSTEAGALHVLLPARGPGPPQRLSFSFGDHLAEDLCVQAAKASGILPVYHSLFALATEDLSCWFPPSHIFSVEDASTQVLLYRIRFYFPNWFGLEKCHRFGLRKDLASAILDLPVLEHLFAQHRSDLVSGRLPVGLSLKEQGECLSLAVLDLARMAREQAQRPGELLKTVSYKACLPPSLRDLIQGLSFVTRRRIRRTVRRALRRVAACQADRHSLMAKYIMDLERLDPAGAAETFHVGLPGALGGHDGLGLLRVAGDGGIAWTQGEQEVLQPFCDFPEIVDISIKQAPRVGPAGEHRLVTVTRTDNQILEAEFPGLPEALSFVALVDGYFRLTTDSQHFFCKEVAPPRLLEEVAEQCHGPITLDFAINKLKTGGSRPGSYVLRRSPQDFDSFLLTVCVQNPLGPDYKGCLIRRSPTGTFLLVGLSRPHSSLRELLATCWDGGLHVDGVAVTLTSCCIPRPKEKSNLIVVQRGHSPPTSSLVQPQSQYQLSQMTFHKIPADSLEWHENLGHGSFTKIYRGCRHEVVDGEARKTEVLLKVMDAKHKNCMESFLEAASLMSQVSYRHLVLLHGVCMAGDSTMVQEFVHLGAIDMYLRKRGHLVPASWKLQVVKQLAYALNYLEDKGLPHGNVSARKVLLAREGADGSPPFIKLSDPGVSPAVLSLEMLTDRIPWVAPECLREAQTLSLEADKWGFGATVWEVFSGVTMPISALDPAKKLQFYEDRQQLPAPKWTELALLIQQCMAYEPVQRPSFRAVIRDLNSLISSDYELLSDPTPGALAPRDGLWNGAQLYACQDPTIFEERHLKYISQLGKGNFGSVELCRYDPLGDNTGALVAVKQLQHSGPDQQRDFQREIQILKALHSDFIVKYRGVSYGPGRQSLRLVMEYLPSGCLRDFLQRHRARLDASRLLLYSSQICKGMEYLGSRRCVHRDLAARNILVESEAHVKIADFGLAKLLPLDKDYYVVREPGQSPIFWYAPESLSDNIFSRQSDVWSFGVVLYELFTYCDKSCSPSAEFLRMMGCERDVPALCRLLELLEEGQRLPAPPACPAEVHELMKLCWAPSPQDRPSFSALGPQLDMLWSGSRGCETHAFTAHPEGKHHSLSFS
Put plainly: Inhibition of human JAK3 at 0.5 uM assessed as competition rate relative to control.

For assay [10], the target named is Receptor-type tyrosine-protein kinase FLT3 (Homo sapiens) (UniProt P36888). Put plainly: Inhibition of human FLT3 at 0.5 uM assessed as competition rate relative to control.
Receptor-type tyrosine-protein kinase FLT3 (Homo sapiens), sequence (P36888 whole entry): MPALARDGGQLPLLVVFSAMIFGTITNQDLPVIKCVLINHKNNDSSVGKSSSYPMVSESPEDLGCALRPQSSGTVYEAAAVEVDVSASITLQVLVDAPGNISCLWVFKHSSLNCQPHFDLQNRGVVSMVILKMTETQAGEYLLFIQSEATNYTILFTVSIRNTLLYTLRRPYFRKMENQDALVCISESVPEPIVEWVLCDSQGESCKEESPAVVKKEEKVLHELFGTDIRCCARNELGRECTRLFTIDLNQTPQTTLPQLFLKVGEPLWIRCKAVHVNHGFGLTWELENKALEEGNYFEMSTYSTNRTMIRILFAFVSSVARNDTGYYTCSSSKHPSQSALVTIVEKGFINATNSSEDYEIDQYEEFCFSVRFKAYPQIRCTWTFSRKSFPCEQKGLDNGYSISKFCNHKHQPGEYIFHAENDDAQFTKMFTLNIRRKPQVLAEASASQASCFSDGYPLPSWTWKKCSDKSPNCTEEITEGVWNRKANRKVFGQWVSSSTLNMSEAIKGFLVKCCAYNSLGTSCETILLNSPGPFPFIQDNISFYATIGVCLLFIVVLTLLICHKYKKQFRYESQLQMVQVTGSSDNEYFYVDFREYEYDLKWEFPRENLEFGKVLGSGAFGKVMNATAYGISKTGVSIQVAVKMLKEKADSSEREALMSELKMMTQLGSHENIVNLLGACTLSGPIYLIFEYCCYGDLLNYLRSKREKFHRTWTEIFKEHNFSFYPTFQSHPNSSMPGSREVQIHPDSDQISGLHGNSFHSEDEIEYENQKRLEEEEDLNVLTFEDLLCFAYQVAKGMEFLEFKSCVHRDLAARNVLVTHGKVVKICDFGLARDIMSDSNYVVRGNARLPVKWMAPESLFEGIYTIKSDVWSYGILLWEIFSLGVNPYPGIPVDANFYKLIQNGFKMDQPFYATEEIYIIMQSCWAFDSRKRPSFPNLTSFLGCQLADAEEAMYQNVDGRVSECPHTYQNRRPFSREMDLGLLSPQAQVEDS
Assay [11] concerns the target Cytoplasmic tyrosine-protein kinase BMX (Homo sapiens) (UniProt P51813). In words: Inhibition of BMX (unknown origin) at 0.5 uM assessed as competition rate relative to control.
Assay [12] deals with Tyrosine-protein kinase TXK (Homo sapiens) (UniProt P42681). Put plainly: Inhibition of TXK (unknown origin) at 0.5 uM assessed as competition rate relative to control.
Assay [13] deals with [Pyruvate dehydrogenase (acetyl-transferring)] kinase isozyme 1, mitochondrial (Homo sapiens) (UniProt Q15118). In words: Inhibition of PDK1 (unknown origin) at 0.5 uM assessed as competition rate relative to control.
Assay [14] has as its target Receptor tyrosine-protein kinase erbB-2 (Homo sapiens) (UniProt P04626). Put plainly: Inhibition of HER2 (unknown origin) at 0.5 uM assessed as competition rate relative to control.
The test system of assay [15] is U-937. In words: cells. The settings on record: Homo sapiens, U-937, 72 h.

Receptor tyrosine-protein kinase erbB-2 (Homo sapiens), sequence (P04626 whole entry): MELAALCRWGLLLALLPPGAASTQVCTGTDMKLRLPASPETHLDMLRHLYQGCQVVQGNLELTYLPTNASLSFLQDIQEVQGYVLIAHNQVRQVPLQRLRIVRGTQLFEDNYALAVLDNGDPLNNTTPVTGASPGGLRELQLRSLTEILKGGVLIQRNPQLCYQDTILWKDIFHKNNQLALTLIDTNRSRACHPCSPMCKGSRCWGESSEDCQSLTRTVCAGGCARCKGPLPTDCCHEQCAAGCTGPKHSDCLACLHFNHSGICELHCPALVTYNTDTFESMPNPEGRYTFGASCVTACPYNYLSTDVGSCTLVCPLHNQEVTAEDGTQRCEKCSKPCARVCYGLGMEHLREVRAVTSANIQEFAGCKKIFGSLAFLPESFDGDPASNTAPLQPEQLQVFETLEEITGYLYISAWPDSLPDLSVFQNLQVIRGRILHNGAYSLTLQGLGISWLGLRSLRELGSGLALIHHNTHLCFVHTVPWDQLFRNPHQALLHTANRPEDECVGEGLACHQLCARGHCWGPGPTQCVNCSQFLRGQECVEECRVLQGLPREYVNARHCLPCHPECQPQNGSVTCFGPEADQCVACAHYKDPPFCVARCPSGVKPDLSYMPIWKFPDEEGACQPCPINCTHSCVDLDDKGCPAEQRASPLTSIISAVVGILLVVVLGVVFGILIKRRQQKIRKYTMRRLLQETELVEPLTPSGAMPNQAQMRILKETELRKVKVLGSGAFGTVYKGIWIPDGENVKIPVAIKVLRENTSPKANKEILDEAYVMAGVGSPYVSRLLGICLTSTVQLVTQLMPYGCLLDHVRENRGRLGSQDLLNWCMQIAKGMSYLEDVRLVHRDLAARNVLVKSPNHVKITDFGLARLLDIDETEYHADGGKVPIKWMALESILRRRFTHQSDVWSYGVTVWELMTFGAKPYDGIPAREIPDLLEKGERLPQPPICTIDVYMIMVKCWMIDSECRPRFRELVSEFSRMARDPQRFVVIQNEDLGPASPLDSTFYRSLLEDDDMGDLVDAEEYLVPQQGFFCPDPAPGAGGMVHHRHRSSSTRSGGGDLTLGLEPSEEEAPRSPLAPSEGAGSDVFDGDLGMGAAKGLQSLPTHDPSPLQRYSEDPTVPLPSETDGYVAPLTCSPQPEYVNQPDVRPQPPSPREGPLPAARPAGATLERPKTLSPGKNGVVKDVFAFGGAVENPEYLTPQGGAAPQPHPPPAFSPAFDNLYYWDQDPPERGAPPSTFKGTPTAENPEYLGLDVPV
Cytoplasmic tyrosine-protein kinase BMX (Homo sapiens), sequence (P51813 whole entry): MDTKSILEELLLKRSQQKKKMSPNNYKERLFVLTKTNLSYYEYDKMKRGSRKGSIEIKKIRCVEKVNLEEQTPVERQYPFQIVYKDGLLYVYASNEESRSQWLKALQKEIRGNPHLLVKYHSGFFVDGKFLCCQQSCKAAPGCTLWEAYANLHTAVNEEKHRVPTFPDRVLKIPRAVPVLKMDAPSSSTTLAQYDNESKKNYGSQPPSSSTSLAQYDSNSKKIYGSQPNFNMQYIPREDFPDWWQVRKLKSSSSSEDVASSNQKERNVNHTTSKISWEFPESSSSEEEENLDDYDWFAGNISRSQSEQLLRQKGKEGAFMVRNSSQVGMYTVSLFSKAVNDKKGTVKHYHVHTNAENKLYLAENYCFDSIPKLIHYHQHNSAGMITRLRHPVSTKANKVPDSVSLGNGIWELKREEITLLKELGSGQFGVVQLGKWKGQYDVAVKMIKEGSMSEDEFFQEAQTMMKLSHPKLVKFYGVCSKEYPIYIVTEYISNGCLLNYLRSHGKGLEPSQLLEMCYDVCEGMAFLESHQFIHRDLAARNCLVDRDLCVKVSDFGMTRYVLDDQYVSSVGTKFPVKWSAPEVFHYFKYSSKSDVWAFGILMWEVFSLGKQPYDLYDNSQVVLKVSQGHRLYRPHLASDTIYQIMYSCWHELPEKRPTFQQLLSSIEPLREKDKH
Signal transducer and activator of transcription 3 (Homo sapiens), sequence (P40763 whole entry): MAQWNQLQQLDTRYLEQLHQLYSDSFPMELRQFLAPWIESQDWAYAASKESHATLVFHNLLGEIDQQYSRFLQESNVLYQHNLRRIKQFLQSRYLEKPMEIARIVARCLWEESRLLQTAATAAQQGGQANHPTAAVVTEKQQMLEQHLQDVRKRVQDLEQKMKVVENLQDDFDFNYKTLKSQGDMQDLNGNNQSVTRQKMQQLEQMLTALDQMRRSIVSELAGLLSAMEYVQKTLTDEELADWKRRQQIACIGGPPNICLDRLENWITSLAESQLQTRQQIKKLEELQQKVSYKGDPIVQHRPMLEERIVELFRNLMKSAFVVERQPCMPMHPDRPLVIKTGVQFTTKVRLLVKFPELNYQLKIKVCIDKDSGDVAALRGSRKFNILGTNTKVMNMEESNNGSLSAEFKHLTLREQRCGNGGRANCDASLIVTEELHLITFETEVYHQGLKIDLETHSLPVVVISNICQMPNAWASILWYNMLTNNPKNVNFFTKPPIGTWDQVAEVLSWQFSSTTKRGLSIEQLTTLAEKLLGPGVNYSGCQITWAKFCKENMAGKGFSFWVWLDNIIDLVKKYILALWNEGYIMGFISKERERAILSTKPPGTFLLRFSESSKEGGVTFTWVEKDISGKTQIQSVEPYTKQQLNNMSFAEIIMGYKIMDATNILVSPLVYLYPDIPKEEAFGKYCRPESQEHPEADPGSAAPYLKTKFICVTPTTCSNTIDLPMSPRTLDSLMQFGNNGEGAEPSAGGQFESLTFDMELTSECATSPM
Non-receptor tyrosine-protein kinase TYK2, sequence (P29597 whole entry): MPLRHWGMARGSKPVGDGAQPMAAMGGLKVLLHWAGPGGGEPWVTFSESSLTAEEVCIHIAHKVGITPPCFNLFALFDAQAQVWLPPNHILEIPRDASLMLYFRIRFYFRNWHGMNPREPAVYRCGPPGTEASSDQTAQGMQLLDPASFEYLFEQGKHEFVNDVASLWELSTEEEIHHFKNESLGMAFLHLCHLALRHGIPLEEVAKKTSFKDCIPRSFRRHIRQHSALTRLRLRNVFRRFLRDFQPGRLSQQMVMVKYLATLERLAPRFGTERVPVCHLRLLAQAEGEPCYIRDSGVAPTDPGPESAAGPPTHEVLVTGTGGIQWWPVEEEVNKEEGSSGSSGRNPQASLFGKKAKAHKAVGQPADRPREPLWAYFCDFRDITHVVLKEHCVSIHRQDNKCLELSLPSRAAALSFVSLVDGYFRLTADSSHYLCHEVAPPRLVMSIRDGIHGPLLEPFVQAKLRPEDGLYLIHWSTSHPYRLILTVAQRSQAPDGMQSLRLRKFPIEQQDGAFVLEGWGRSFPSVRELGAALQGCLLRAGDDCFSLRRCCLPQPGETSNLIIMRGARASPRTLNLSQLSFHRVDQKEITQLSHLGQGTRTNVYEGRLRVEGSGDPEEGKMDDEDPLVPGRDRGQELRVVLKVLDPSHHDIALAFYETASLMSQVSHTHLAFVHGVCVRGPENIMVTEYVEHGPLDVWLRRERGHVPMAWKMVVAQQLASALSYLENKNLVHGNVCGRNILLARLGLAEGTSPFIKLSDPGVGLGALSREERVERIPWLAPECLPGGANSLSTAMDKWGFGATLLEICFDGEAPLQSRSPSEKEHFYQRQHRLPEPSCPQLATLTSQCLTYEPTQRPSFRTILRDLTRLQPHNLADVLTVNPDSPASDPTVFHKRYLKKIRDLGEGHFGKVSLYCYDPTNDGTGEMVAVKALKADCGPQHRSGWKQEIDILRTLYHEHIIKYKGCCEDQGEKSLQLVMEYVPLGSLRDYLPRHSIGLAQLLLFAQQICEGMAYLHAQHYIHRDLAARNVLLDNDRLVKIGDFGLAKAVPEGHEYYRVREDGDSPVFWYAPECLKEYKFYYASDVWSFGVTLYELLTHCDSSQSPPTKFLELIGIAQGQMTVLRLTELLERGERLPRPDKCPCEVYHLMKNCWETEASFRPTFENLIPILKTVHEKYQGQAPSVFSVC

For the compound `C=CC(=O)Nc1cc(Nc2ncc(Cl)c(O[C@@H]3CO[C@H]4[C@@H]3OC[C@H]4OC)n2)ccc1N(C)CCN(C)C`, the inhibition in assay [1] was 30%; in [2] it was 36%; in assay [3], 92%; in [4], 115%; in assay [5], “Tde”; in assay [6], “Dde”. For the same compound, the inhibition came to 90% in [9]; 70% in assay [10]; 40% in assay [11]; 40% in [12]; 40% in assay [13]; 40% in [14]. In addition, the Activity in the assay on U-937 [7] amounted to 15.18%; in the assay with U-937 [8], 9.85%. The compound also had an IC50 in the assay on U-937 [15] of 20.2 nM.
